The test system of data set [1] is PDE IV isolated and purified from guinea pig eosinophils. Briefly: PDE IV inhibitory activity test. The data set is classed as biochemical. Particulars: hydrolysis of cAMP by enzyme preparation from guinea pig eosinophils; read-out: 50% Inhibitory Concentration. On the procedure:
The PDE IV inhibitory activity test was carried out according to a method using cosinophils prepared from the abdomen of guinea pig (Souness, J. E. et al., Biochem. Pharmacol. vol. 42, p. 937 (1991)). That is, a homogenizing buffer (10 ml, components: 20 mM Tris-HCl buffer (pH 7.5); 2 mM magnesium chloride; 1 mM dithiothreitol, 5 mM ethylenediamine tetraacetate disodium; 250 mM sucrose; 20 μM p-tosyl-l-lysine-chloromethylketone; 10 μg/ml Leupeptine) was added to 5×10^7 cells, and the mixture was centrifuged. To the residue was added a solubilizing buffer (10 ml, sodium deoxycholate (final concentration: 0.5%) and sodium chloride (final concentration: 100 mM) were added to the above homogenizing buffer), and the mixture was centrifuged again. The supernatant was subjected to ultrafiltration using Molcut-II (manufactured by Japan Millipore Limited), and the fraction on the membrane was collected by adding a homogenizing buffer (10 ml) to give an enzyme preparation. Inhibitory activity against the enzyme was determined by comparing the hydrolysis rates of a substrate, cAMP (manufactured by Nacalai Tesque Inc.), by the above enzyme fraction between in the test compound-treated group and the vehicle group.

Data set [2] deals with bronchoconstriction of guinea pig induced by the antigen. Briefly: Inhibitory effect on antigen-induced bronchoconstriction (Konzett-Roessler method). Format: in vivo. Particulars: sensitized guinea pigs; for inhibition in vivo at 10 mg/kg / inhibition in vivo at 3 mg/kg / inhibition in vivo at 30 mg/kg: Cavia porcellus, po, read-out: Inhibitory Rate; for inhibition in vivo at 3 mg/kg: 3 mg/kg orally; for inhibition in vivo at 30 mg/kg: 30 mg/kg orally. How it is done:
Hartley male guinea pigs were actively sensitized by intraperitoneally administering an ovalbumin (manufacture by Sigma). Four weeks thereafter, the animals were anesthetized with Nembutal (50 mg/kg, i.p., manufactured by Dainabot Co., Ltd.), and a cannual was inserted at the airway, and the bronchoconstriction response of the animals under artificial respiration was observed. The response of the airway was measured by Konzett-Roessler method (Naunyn-Schmiedebergs, Aech. Exp. Pathol. Pharmacol., vol. 195, p. 71 (1940)). A test compound (the compounds of Examples of the present invention as listed in Table 3) was orally administered to the animals one hour prior to the administration of the antigen (i.e., ovalbumin, 0.05%/physiological saline solution, i.v.). Only the compound of Example 31 was orally administered 2 hours prior to the administration of the antigene. The inhibitory rate (%) caused by the test compound was calculated by comparing the bronchoconstriction response of the test compound-treated group with that of the control group to which only a solvent was administered.

Another data set in a line: acute toxicity test. The settings on record: dose of 2000 mg/kg. The data set is classed as in vivo. The source says:
Besides, the present compounds (I) of the present invention are low toxic.

Where [3] appears, read: 1 h, 10 mg/kg orally, one hour prior to antigen (ovalbumin i.v.).
Setting [4] is: 2 hours prior to antigen (ovalbumin i.v.).
The mark [5] stands for this setting: 1 h, one hour prior to antigen (ovalbumin i.v.).

pIC50: −log10 of the molar value. Counter-ions that a name gives are not always drawn. Like-named read-outs stand apart in the source and are kept apart here.

Turning to `Brc1cccc(Sc2ncccc2OCCCc2cccnc2)c1` [Example 3, 2-(3-bromophenylthio)-3-[3-(pyridin-3-yl)propoxy]-pyridine], the pIC50 in data set [1] is 7.45. In data set [2] (setting [3]), the inhibition in vivo at 10 mg/kg was found to be 59.9%.

The melting point is the temperature of the solid-liquid transition. Compound `Brc1cccc(Sc2ncccc2OCCCc2ccncc2)c1` [Example 7, 2-(3-bromophenylthio)-3-[3-(pyridin-4-yl)propoxy]pyridine] showed a melting point of 89 to 90 °C. Moreover, the pIC50 in data set [1] was 7.47. The inhibition in vivo at 10 mg/kg in data set [2] (setting [3]) was 77.2%.

`Oc1cccc(Sc2ncccc2OCCCc2ccncc2)c1` [Example 13, 2-(3-hydroxyphenylthio)-3-[3-(pyridin-4-yl)propoxy]pyridine] registered a melting point of 158 to 159 °C.

In turn, `COc1cccc(Sc2ncccc2OCCCc2ccncc2)c1` [Example 14] came in with a melting point of 84 to 85 °C. For the same compound, the pIC50 in data set [1] was 7.82.

In turn, `c1ccc(Sc2ncccc2OCCCc2ccncc2)cc1` [Example 15] yielded a melting point of 41 to 43 °C. Moreover, the pIC50 in data set [1] was 8.01.

Regarding `Oc1cnccc1CCCOc1cccnc1Sc1cccc(Br)c1` [Example 26, 2-(3-bromophenylthio)-3-[3-(3-hydroxypyridin-4-yl)-propoxy]pyridine], the inhibition in vivo at 10 mg/kg in data set [2] (setting [3]) was 48.3%.

With `N#Cc1cccc(Oc2ncccc2OCCCc2ccncc2O)c1` [Example 28, 2-(3-cyanophenoxy)-3-[3-(3-hydroxypyridin-4-yl)-propoxy]pyridine], the inhibition in vivo at 10 mg/kg in data set [2] (setting [3]) was 54%.

In the case of `CCOC(=O)c1cccc(Oc2ncccc2OCCCc2ccncc2O)c1.CCOC(=O)c1cccc(Oc2ncccc2OCCCc2ccncc2O)c1.O=C(O)/C=C/C(=O)O` [Example 29, 2-(3-ethoxycarbonylphenoxy)-3-[3-(3-hydroxypyridin-4-yl)propoxy]pyridine.0.5 fumarate], in data set [2] (10 mg/kg orally, one hour prior to antigen (ovalbumin i.v.)), the “Inhibitory Rate” value was found to be 42%.

On to `Oc1cnccc1CCCOc1cccnc1Oc1ccccc1` [Example 30, 2-phenoxy-3-[3-(3-hydroxypyridin-4-yl)propoxy]pyridine], for which the pIC50 in data set [1] is 7.96. Besides, the inhibition in vivo at 10 mg/kg in data set [2] (setting [3]) worked out at 46.5%.

As to `Oc1cnccc1CCCOc1cccnc1Oc1cccc(Cl)c1` [Example 31, 2-(3-chlorophenoxy)-3-[3-(3-hydroxypyridin-4-yl)-propoxy]pyridine], in data set [1], the pIC50 was 7.80. Further, in data set [2] (setting [4]), the inhibition in vivo at 3 mg/kg turned out to be 39% and the inhibition in vivo at 30 mg/kg was found to be 69%. In addition, the inhibition in vivo at 10 mg/kg in data set [2] (10 mg/kg orally, 2 hours prior to antigen (ovalbumin i.v.)) was found to be 66%. The “toxicity in acute toxicity test” value in “acute toxicity test” was “never showed any toxicity”.

Regarding `Oc1cnccc1CCCOc1cccnc1Oc1cccc(Br)c1` [Example 32, 2-(3-bromophenoxy)-3-[3-(3-hydroxypyridin-4-yl)-propoxy]pyridine], the pIC50 in data set [1] was 7.85. In addition, in data set [2] (setting [5]), the inhibition in vivo at 3 mg/kg amounted to 34% and the inhibition in vivo at 30 mg/kg turned out to be 72%. Moreover, the inhibition in vivo at 10 mg/kg in data set [2] (setting [3]) came to 70%.

With `Brc1cccc(Oc2ncccc2OCCCc2ccncc2)c1` [Example 35, 2-(3-bromophenoxy)-3-[3-(pyridin-4-yl)propoxy]pyridine], in data set [1], the pIC50 is 7.59. In addition, the inhibition in vivo at 10 mg/kg in data set [2] (setting [3]) was determined as 49.3%.

The compound `c1ccc(Oc2ncccc2OCCCc2ccncc2)cc1` [Example 37, 2-phenoxy-3-[3-(pyridin-4-yl)propoxy]pyridine] showed a melting point of 97 to 98 °C. In data set [1], the pIC50 was 7.57. The inhibition in vivo at 10 mg/kg in data set [2] (setting [3]) amounted to 49.6%.

The compound `Fc1cccc(Oc2ncccc2OCCCc2ccncc2)c1` [Example 39, 2-(3-fluorophenoxy)-3-[3-(pyridin-4-yl)propoxy]pyridine] registered a melting point of 117 to 118 °C. In data set [1], the pIC50 is 7.69. The inhibition in vivo at 10 mg/kg in data set [2] (setting [3]) was 66.3%.

In the case of `Brc1cccc(Oc2ncccc2OCCCc2cccnc2)c1` [Example 40], the melting point lay within 46 to 48 °C. In data set [1], the pIC50 is 7.74. In addition, the inhibition in vivo at 10 mg/kg in data set [2] (setting [3]) stood at 45.3%.

Regarding `N#Cc1cccc(Oc2ncccc2OCCCc2ccncc2)c1` [Example 41, 2-(3-Cyanophenoxy)-3-[3-(pyridin-4-yl)propoxy]pyridine], the melting point was 112 to 113 °C. The pIC50 in data set [1] was 7.41.

On to `Oc1cnccc1CCCOc1cccnc1Oc1cccc(F)c1` [Example 44, 2-(3-fluorophenoxy)-3-[3-(3-hydroxypyridin-4-yl)-propoxy]pyridine], for which, in data set [1], the pIC50 was 7.46. Further, the inhibition in vivo at 10 mg/kg in data set [2] (setting [3]) worked out at 55%.

For the compound `Oc1cnccc1CCCOc1cccnc1Nc1cccc(Br)c1` [Example 46, 2-(3-bromoanilino)-3-[3-(3-hydroxypyridin-4-yl)propoxy]-pyridine], the inhibition in vivo at 10 mg/kg in data set [2] (setting [3]) is 45.7%.

For the compound `COC(=O)c1cccc(Oc2ncccc2OCCCc2ccncc2)c1` [Example 53, 2-(3-methoxycarbonylphenoxy)-3-[3-(pyridin-4-yl)-propoxy]pyridine], the pIC50 in data set [1] is 7.63.

As for `CC(=O)Oc1cnccc1CCCOc1cccnc1Oc1cccc(Cl)c1` [Example 54, 2-(3-chlorophenoxy)-3-[3-(3-acetoxypyridin-4-yl)propoxy]-pyridine.monofumarate], in data set [1], the pIC50 was 7.20. Also, the inhibition in vivo at 10 mg/kg in data set [2] (setting [3]) was determined as 33%.

As to `CC(=O)Oc1cnccc1CCCOc1cccnc1Oc1ccccc1` [Example 56, 2-phenoxy-3-[3-(3-acetoxypyridin-4-yl)propoxy]pyridine], the pIC50 in data set [1] was 8.25.

Turning to `CC(=O)Oc1cnccc1CCCOc1cccnc1Cc1cccc(Br)c1` [Example 57, 2-(3-bromobenzyl)-3-[3-(3-acetoxypyridin-4-yl)propoxy]-pyridine.1.5 fumarate], the pIC50 in data set [1] was 7.64.

For `Oc1cncc(CCCOc2cccnc2Oc2cccc(Cl)c2)c1` [Example 65, 2-(3-chlorophenoxy)-3-[3-(5-hydroxypyridin-3-yl)-propoxy]pyridine], the pIC50 in data set [1] was 7.07.

As for `Nc1cncc(O)c1CCCOc1cccnc1Oc1cccc(Cl)c1` [Example 69, 2-(3-chlorophenoxy)-3-[3-(3-amino-5-hydroxypyridin-4-yl)propoxy]pyridine.1.0 fumarate], the pIC50 in data set [1] was 7.39.

As to `CS(=O)(=O)Nc1cnccc1CCCOc1cccnc1Oc1cccc(Cl)c1` [Example 70, 2-(3-chlorophenoxy)-3-[3-(3-methylsulfonylaminopyridin-4-yl)propoxy]pyridine], the pIC50 in data set [1] is 6.82.

Turning to `Oc1cncc(Cl)c1CCCOc1cccnc1Oc1cccc(Cl)c1` [Example 73, 2-(3-chlorophenoxy)-3-[3-(3-chloro-5-hydroxypyridin-4-yl)propoxy]pyridine], the pIC50 in data set [1] was 6.70.

In the case of `COc1ccc(C(=O)Nc2c(Cl)cncc2Cl)cc1OC1CCCC1` [RP-73401, reference compound], in data set [1], the pIC50 is 9.74.

`COc1ccc(C2CNC(=O)C2)cc1OC1CCCC1` (stereo not shown) [Rolipram, reference compound]: in data set [1], the pIC50 was 7.55.

With `COc1ccc([C@]2(C#N)CC[C@@H](C(=O)O)CC2)cc1OC1CCCC1` [SB-207499, reference compound], in data set [1], the pIC50 was 7.96.

These data come from patent publication US6683186B2, “2,3-Disubstituted pyridine derivative, process for the preparation thereof, pharmaceutical composition containing the same, and intermediate therefor” (Dainippon Pharmaceutical Company, Limited, priority 1998, dated 2004).
